The record followed here is patent publication US7741520B2, “Sulfonanilide analogs as selective aromatase modulators (SAMs)” (The Ohio State University Research Foundation, priority 2006, dated 2010).

Data set [1] deals with aromatase activity in SK-BR-3 breast cancer cells. Briefly: Tritiated water-release assay in SK-BR-3 cells (additional compounds). Format: cell-based, human. Particulars: for IC50: dose-response (FIG. 13), read-out: IC50 (μM), suppression of aromatase activity in SK-BR-3 breast cancer cells. As for the experimental part:
Cell Culture. AR and SK-BR-3 cells were obtained from ATCC (Rockville, Md.). SK-BR-3 cells were maintained in phenol red-free custom media (MEM, Earle's salts, 1.5× amino acids, 2× non-essential amino acids, L-glutamine, 1.5× vitamins, Gibco BRL) supplemented with 10% fetal bovine serum (FBS), 2 mM L-glutamine and 20 mg/L gentamycin. […] Fetal bovine serum was heat inactivated for 30 min in a 56° C. water bath before use. Cell cultures were grown at 37° C., in a humidified atmosphere of 5% CO2 in a Hereaus CO2 incubator. For all experiments, cells were plated in 6 well plates and grown to subconfluency. Before treatment, the media was changed to a defined one containing DMEM/F12 media (Sigma) with 1.0 mg/mL human albumin (OSU Hospital Pharmacy), 5.0 mg/L human transferin and 5.0 mg/L bovine insulin.
Tritiated water-release assay in JAR and SK-BR-3 cell lines. Measurement of aromatase enzyme activity was based on the tritium water release assay. Cells in six well plates were treated with 0.1% DMSO (control), and inhibitors at the indicated concentrations. After 24 hours, the cells were incubated 3 hours (SK-BR-3 cells) or 1 hour (JAR cells) with fresh media along with 100 nM [1β-^3H]-androst-4-ene-3,17-dione (1 μCi). Subsequently, the reaction mixture was removed, and proteins were precipitated using 10% trichloroacetic acid at 42° C. for 20 min. After a brief centrifugation, the media was extracted three times with an equal amount of chloroform to remove remaining substrate and further treated with dextran-treated charcoal. After centrifugation, a 250-μl aliquot containing the product was counted in 5 ml of liquid scintillation mixture. Results were corrected for blanks and for the cell contents of culture flasks, and results were expressed as picomoles of ^3H2O formed per hour incubation time per million live cells (pmol/h/10^6 cells). To determine the amount of cells in each flask, the cells were lysed and analyzed using the diphenylamine DNA assay adapted to a 96-well plate. IC50 sigmoidal dose-response data were analyzed with Microsoft Excel and the Graphpad Prism (Version 3.0) program.
Diphenylamine DNA Assay To determine the amount of viable cells in each flask, the cells were lysed with 0.5N NaOH aqueous solution and analyzed using the diphenylamine DNA assay adapted to a 96-well plate. DNA standards (0-30 μg) were prepared using double-stranded DNA reconstituted in PBS and added in triplicates directly to the wells. A uniform cell suspension was prepared from the 6 well plate in 300 μl 0.5N NaOH aqueous solution, and 60 μl of the unknown samples were added in triplicates to separate wells. […] This solution (60 μl) was added to each well along with 100 μl of a 4% diphenylamine solution in glacial acetic acid. The plates were incubated at 37° C. for 24 hours. After centrifugation, 100 μl supernatant of each well was transferred to a new 96 well plate, and the OD595 was measured using a microplater reader. The DNA concentration was determined by extrapolation to the standard curve and the amount of cells/well was calculated using the equation: 1 cell≈7 pg DNA.

Another data set deals with SK-BR-3 cells. The data set can be described thus: Cell viability analysis (MTT assay) in SK-BR-3 cells. Format: cell-based, human. Conditions: 10 μM (FIG. 15). The protocol:
Cell Viability Analysis. The effect of nimesulides derivatives on SK-BR-3 cell viability was assessed by using the 3-(4,5-dimethylthiazol-2-yl)-2,5-diphenyl-2H-tetrazolium bromide assay in six replicates. Cells were grown in custom media in 96-well, flat-bottomed plates for 24 h, and were exposed to various concentrations of nimesulide derivatives dissolved in DMSO (final concentration ≦0.1%) in define media for different time intervals. Controls received DMSO vehicle at a concentration equal to that in drug-treated cells. The medium was removed, replaced by 200 μl of 0.5 mg/ml of 3-(4,5-dimethylthiazol-2-yl)-2,5-diphenyl-2H-tetrazolium bromide in fresh media, and cells were incubated in the CO2 incubator at 37° C. for 2 h. Supernatants were removed from the wells, and the reduced 3-(4,5-dimethylthiazol-2-yl)-2,5-diphenyl-2H-tetrazolium bromide dye was solubilized in 200 μl/well DMSO. Absorbance at 570 nm was determined on a plate reader.
For orientation: Formazan colour is commonly taken as a measure of viable cells.

`CN(c1ccc([N+](=O)[O-])cc1OCc1ccccc1-c1ccccc1)S(C)(=O)=O` [Compound 29c, N-methyl-N-[2-(2′-phenylbenzyloxy)-4-nitrophenyl]methanesulfonamide]: the melting point lay in the range of 128 to 129 °C. Also, in data set [1], the IC50 was 0.33 ± 0.15 µM. In addition, the “increase in activity compared with nimesulide” value in data set [1] (from IC50 values) is “eighty fold increase”. Also, the “cell cytotoxicity (MTT)” value in the data set with SK-BR-3 cells is recorded as “did not cause significant cell cytotoxicity”.

On to `CN(c1ccc([N+](=O)[O-])cc1OCc1ccc(F)cc1)S(C)(=O)=O` [Compound 33c, N-methyl-N-[2-(4′-fluorobenzyloxy)-4-nitrophenyl]methanesulfonamide], for which the melting point lay within 168 to 169 °C. The IC50 in data set [1] turned out to be 1.78 ± 0.63 µM. Also, the “cell cytotoxicity (MTT)” value in the data set on SK-BR-3 cells is “did not cause significant cell cytotoxicity”.

For `CN(c1ccc([N+](=O)[O-])cc1OCc1ccccc1)S(C)(=O)=O` [Compound 26f, N-methyl-N-(2-benzyloxy-4-nitrophenyl) methanesulfonamide], in data set [1], the IC50 was found to be 0.81 ± 0.29 µM. Besides, the “cell cytotoxicity (MTT)” value in the data set on SK-BR-3 cells is reported as “did not cause significant cell cytotoxicity”.

Regarding `CN(c1ccc([N+](=O)[O-])cc1OCc1ccc2ccccc2c1)S(C)(=O)=O` [Compound 28c, N-methyl-N-[2-(β-naphthylmethoxy) 4-nitrophenyl]methanesulfonamide], the melting point is 119 to 121 °C. Further, in data set [1], the IC50 turned out to be 2.68 ± 0.91 µM. Besides, the “cell cytotoxicity (MTT)” value in the data set with SK-BR-3 cells is “did not cause significant cell cytotoxicity”.

In turn, `Cc1ccc(COc2cc([N+](=O)[O-])ccc2N(C)S(C)(=O)=O)cc1` [Compound 30c, N-methyl-N-[2-(4′-methylbenzyloxy)-4-nitrophenyl]methanesulfonamide] gave a melting point of 96 to 98 °C. Further, the 50% inhibitory concentration (IC50) in data set [1] was 2.33 ± 0.66 µM. Also, the “cell cytotoxicity (MTT)” value with SK-BR-3 cells is on record as “did not cause significant cell cytotoxicity”.

Consider `CN(c1ccc([N+](=O)[O-])cc1OCc1ccc([N+](=O)[O-])cc1)S(C)(=O)=O` [Compound 27c, N-methyl-N-[2-(4′-nitrobenzyloxy)-4-nitrophenyl]methanesulfonamide], for which, in data set [1], the IC50 is 0.49 ± 0.14 µM. The “cell cytotoxicity (MTT)” value in the data set on SK-BR-3 cells was “did not cause significant cell cytotoxicity”.

As usually defined, the IC50 is the concentration needed to halve the response being measured. What is called melting point is the temperature of the solid-liquid transition.
